Measured values as given in patent US10188629B2, “Prodrug of green tea epigallocatechin-3-gallate (pro-EGCG) for use in the treatment of endometriosis” (The Hong Kong Polytechnic University, priority 2012, dated 2019).
Entries after “also recorded” stand apart in the source; their conditions may differ.

What was measured:
[1] = system: endometriotic lesions (experimental endometriosis); experiment: Growth of luminescent endometriotic lesions monitored weekly by IVIS bioluminescence imaging; format: in vivo, mice; settings: for lesion bioluminescence relative to baseline levels / lesion bioluminescence intensity compared with saline group: i.p. once per day, 4 weeks, EGCG, pro-EGCG 50 mg/kg; for lesion bioluminescence intensity compared with saline group: vitamin E 20 mg/kg
Excerpt: Based on our previous study, an immune-compromised mouse model of experimental endometriosis was created by subcutaneous transplantation of human or mouse tissues to assess the anti-angiogenic effects and mechanisms of green tea catechin (Xu H, et al. Hum Reprod 2009; 24:608-18; Xu H, et al. Fertil Steril 2011; 96:1021-8).
(§1) In this study, endometrial tissues from eight-week-old female CMV-Luc mice (n=15) were acquired for transplantation into nonluminescent NOD-SCID mice (n=32). The mouse endometrium was obtained during the proliferating estrous stage, and biopsies 2 mm in diameter were obtained with a sterile dermal biopsy punch (Miltex, NY). The biopsies were immediately washed in prewarmed, phenol-red-free DMEM/F-12 medium (Sigma) to remove residual blood and mucus, and the samples were maintained in serum-free DMEM/F-12 medium before transplantation (Bruner-Tran K L, et al. J Clin Endocrinol Metab 2009; 94:2489-94). Cultured endometrial biopsies were randomly allocated for transplantation.
(§2) Five mouse endometrial biopsies per treatment group were implanted into a single subcutaneous pocket created is the abdominal wall of the mice along the ventral midline immediately below the umbilicus. All of the surgical procedures were performed under general anesthesia with isoflurane (Baxter, IL), and the mice were monitored until they fully recovered.
Development and angiogenesis of the experimental endometriosis were monitored using various in vivo imaging systems. During the intervention, growth of the endometriotic lesions (n=8 per group) was monitored each week by measuring the bioluminescence of the subcutaneous luciferase-positive implants using a non-invasive IVIS 200 live animal imaging system (Xenogen) as previously described (Song C, et al. Hum Gene Ther, 2011; 22:439-49). A total of 150 mg/kg of luciferin was injected intraperitoneally […] 10 mins prior to imaging. An image from each animal was captured at bin size 4 in triplicate, and the bioluminescence signal intensities were averaged for comparison.

[2] = cited from earlier work
[3] = General tolerability and body weight during the intervention; settings: i.p. once per day, 4 weeks; EGCG, pro-EGCG 50 mg/kg, vitamin E 20 mg/kg
Protocol: Immediately after the transplantation, the mice were randomly assigned to receive either vehicle (n=8; sham control), vitamin E (n=8; anti-oxidant control, 20 mg/kg), EGCG (n=8; anti-angiogenesis control, 50 mg/kg, ≈1.5 mg/30 g) or pro-EGCG (n=8; 50 mg/kg).
Dulbecco's phosphate-buffered saline (PBS, Sigma) was used as solvent to dissolve the drugs. These doses were selected because their significant an angiogenic and anti-oxidative effects have been reported in mice (Sang S, et al. Chem Res Toxicol 2005; 18:1762-9; Villayandre B M, et al. Brain Research 2004; 1028, 148-55). The treatments were administered once per day via intraperitoneal injections for a consecutive 4-week period.

[4] = system: vascular endothelial growth factor (VEGF); experiment: VEGF concentrations in plasma and lesions by ELISA; format: in vivo, mice
Excerpt: Pharmacokinetics of EGCG and pro-EGCG in the animals were studied by measuring the corresponding EGCG and pro-EGCG concentrations (EGCG in the EGCG group, pro-EGCG in the pro-EGCG group) in plasma during the intervention and also in lesions at the end of intervention. EGCG and pro-EGCG were quantified by analytical methods as previously described (Lam W H, et al. Bioorg Med Chem. 2004; 510:69-93; Chu K O, et al. J Chromat B 2004; 810:187-95; Chu K O, et al. Anal Chim Acta 2004; 510:69-76). Anti-oxidative and anti-angiogenesis capacities of the samples were also studied by measuring oxygen radical absorbance capacity (ORAC) using a modified phycoerythrin fluorescence decay assay as previously described (Wang C C, et al. Clin Chem 2004; 50:952-4), and vascular endothelial growth factor (VEGF) concentrations were measured using a commercial ELISA kit (Uscn Life Science Inc., TX) according to the manufacturer's manual. Blood samples (n=8 per group) were collected from the tail vein once per week, and plasma was prepared by immediate centrifugation. Implants without subcutaneous and muscle layers (n=4 per group) were removed from the abdominal wall, and the endometriotic lesions were frozen. All of the samples were kept in −80° C. prior to analysis.

[5] = system: endometriotic lesions (experimental endometriosis); experiment: Lesion size, weight and histology at end of intervention; format: in vivo, mice; settings: for lesion size compared to control group / lesion weight compared to control group / development and histology of the endometriotic lesions: after 4 weeks i.p. once per day; for lesion size compared to control group / lesion weight compared to control group: EGCG, pro-EGCG 50 mg/kg, vitamin E 20 mg/kg; for development and histology of the endometriotic lesions: microscopic examination
Excerpt: as §1, §2
At the end of intervention, size of the endometriotic lesions was determined as the longest length and perpendicular width according to a venire caliper and was calculated as 0.52×width^2×length in mm^3. The endometrial implants, together with subcutaneous and muscle layers, were removed from the abdomen wall for detailed histological examination and specific staining analysis.
Paraffin sections (n=4 per group) were prepared for standard hematoxylin and eosin (H&E) staining, angiogenesis immunostaining and TUNEL staining as previously described (Xu H, et al. Hum Reprod 2009; 24:608-18.). Immunohistochemistry staining of in situ angiogenesis was performed by the immunoperoxidase method using a MACH 3 HRP Polymer Kit (Biocare Medical, Concord), and counterstained using methyl green or blue solution.

cancer cells = settings: cited from earlier work
[6] = system: human prostate, breast, leukemic, and simian virus 40-transformed cells; settings: cited from earlier work
[7] = after 4 weeks, 50 mg/kg i.p. once per day

Compound	lesion bioluminescence relative to baseline levels [1]	lesion bioluminescence intensity compared with saline group [1]	bioavailability [2]	stability under physiological conditions ([2]; physiological conditions)	signs of stress, intolerance or toxic responses to administration [3]	VEGF concentrations in endometriotic lesions compared to saline group ([4]; lesions after intervention)	VEGF concentrations in plasma compared to saline group ([4]; plasma during intervention)	lesion size compared to control group [5]	lesion weight compared to control group [5]	development and histology of the endometriotic lesions [5]	lesion bioluminescence intensity compared with EGCG group ([1]; 50 mg/kg i.p. once per day, 2nd, 3rd and 4th weeks)	cell death induction (cancer cells)	proteasome inhibition (cancer cells)	VEGF concentrations in endometriotic lesions compared with EGCG group ([4]; lesions after intervention)	VEGF concentrations in plasma compared with EGCG group ([4]; plasma during intervention)	potency in inhibition of proliferation and transforming activity and induction of apoptosis, compared with EGCG [6]	lesion size compared with EGCG-treated mice [5, 7]	lesion weight compared with EGCG-treated mice [5, 7]
O=C(O[C@@H]1Cc2c(O)cc(O)cc2O[C@@H]1c1cc(O)c(O)c(O)c1)c1cc(O)c(O)c(O)c1 [EGCG, (−)-epigallocatechin-3-gallate]	maintained around the baseline levels	significantly lower than that of the saline group at the 2nd, 3rd and 4th weeks	poor bioavailablity	notably unstable	No signs of stress, intolerance to anesthesia, surgery or implantation or any toxic responses	significantly decreased	significantly decreased	significantly decreased	significantly decreased	poorly developed; also recorded: small and loosely attached to the adjacent tissues								
CC(=O)Oc1cc(OC(C)=O)c2c(c1)O[C@H](c1cc(OC(C)=O)c(OC(C)=O)c(OC(C)=O)c1)[C@H](OC(=O)c1cc(OC(C)=O)c(OC(C)=O)c(OC(C)=O)c1)C2 [pro-EGCG, (−)-EGCG octaacetate]	decreased further below the baseline levels	significantly lower than that of both the saline group and the EGCG group at the 2nd, 3rd and 4th weeks				significantly decreased	significantly decreased	significantly decreased	significantly decreased	poorly developed; also recorded: degraded and almost detached from the peritoneal muscle layers	significantly lower than that of both the saline group and the EGCG group at the 2nd, 3rd and 4th weeks	cell death induction	exhibited proteasome inhibition	significantly lower than those in the EGCG group	significantly lower than those in the EGCG group	much higher potency than EGCG	significantly smaller	lighter
